# Patent publication US8871756B2 (Hoffmann-La Roche Inc., priority 2011, dated 2014)
# Test system: RSV Long strain
# Assay: Viral cytopathic effect (CPE) assay, anti-RSV activity
# Type: cell-based, Respiratory Syncytial Virus
# Conditions: human respiratory syncytial virus, 144 h, RSV Long strain (ATCC); cell viability after 6 days, Cell Counting kit-8
# Procedure, shortened: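 EC50 was derived from CCK-8 viability at 450/630 nm measured 6 days post-infection. Infection used enough RSV Long strain for approximately 80–90% cytopathic effect, in the presence of half-log serially diluted compound. Cells were plated the day before at 6×10^3 per well in DMEM/10% FBS.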
row,EC50 [µM],Structure (SMILES)
1,0.016,"Cc1ccc2nc(N3CCS(=N)(=O)c4ccccc4C3)cc(N3CC(N)C(O)C3)c2c1 (stereo not drawn) [Example 78-1, trans-4-Amino-1-[2-(1-imino-1-oxido-1,2,3,5-tetrahydro-4H-1lambda˜4˜,4-benzothiazepin-4-yl)-6-methylquinolin-4-yl]pyrrolidin-3-ol]"
2,2.79,"Cc1ccc2nc(N3CCS(=O)(=O)c4ccccc4C3)cc(N3CCC(C(N)=O)C3)c2c1 (stereo not drawn) [Example 79, 1-[2-(1,1-Dioxido-2,3-dihydro-1,4-benzothiazepin-4(5H)-yl)-6-methylquinolin-4-yl]pyrrolidine-3-carboxamide]"
3,5.48,"C[S+]([O-])c1ccc2nc(N3CCS(=O)(=O)c4ccccc4C3)cc(NCCCN)c2c1 (stereo not drawn) [Example 80, N-[2-(1,1-Dioxido-2,3-dihydro-1,4-benzothiazepin-4(5H)-yl)-6-(methylsulfinyl)quinolin-4-yl]propane-1,3-diamine]"
4,0.353,"NCCCNc1cc(N2CCS(=O)(=O)c3ccccc3C2)nc2ccc(C(N)=O)cc12 [Example 81, 4-[(3-Aminopropyl)amino]-2-(1,1-dioxido-2,3-dihydro-1,4-benzothiazepin-4(5H)-yl)quinoline-6-carboxamide]"
5,0.014,"CC(O)c1ccc2nc(N3CCS(=O)(=O)c4ccccc4C3)cc(NCCCN)c2c1 (stereo not drawn) [Example 82, 1-{4-[(3-Aminopropyl)amino]-2-(1,1-dioxido-2,3-dihydro-1,4-benzothiazepin-4(5H)-yl)quinolin-6-yl}ethanol]"
6,0.662,"Cc1ccc2nc(N3CCS(=O)(=O)c4ccccc4C3)cc(NCCC#N)c2c1 [Example 83, 3-{[2-(1,1-Dioxido-2,3-dihydro-1,4-benzothiazepin-4(5H)-yl)-6-methylquinolin-4-yl]amino}propanenitrile]"
7,2.96,"Cc1ccc2nc(N3CCS(=O)(=O)c4ccccc4C3)cc(NCCc3nn[nH]n3)c2c1 [Example 84, 2-(1,1-Dioxido-2,3-dihydro-1,4-benzothiazepin-4(5H)-yl)-6-methyl-N-[2-(1H-tetrazol-5-yl)ethyl]quinolin-4-amine]"
8,0.008,"NCCNc1cc(N2CCS(=O)(=O)c3ccccc3C2)nc2ccc(N)cc12 [Example 85, N^˜4^˜-(2-Aminoethyl)-2-(1,1-dioxido-2,3-dihydro-1,4-benzothiazepin-4(5H)-yl)quinoline-4,6-diamine]"
9,2.22,"Cc1ccc2nc(N3CCS(=O)(=O)c4ccccc4C3)cc(N3C(=O)NCC34COC4)c2c1 [Example 86, 5-[2-(1,1-Dioxido-2,3-dihydro-1,4-benzothiazepin-4(5H)-yl)-6-methylquinolin-4-yl]-2-oxa-5,7-diazaspiro[3.4]octan-6-one]"
10,0.096,"Cc1ccc2nc(N3CCS(=O)(=O)c4ccccc4C3)nc(NCC(O)CO)c2c1 (stereo not drawn) [Example 87-1, 3-{[2-(1,1-Dioxido-2,3-dihydro-1,4-benzothiazepin-4(5H)-yl)-6-methylquinazolin-4-yl]amino}propane-1,2-diol]"
11,9.31,O=S1(=O)CCN(c2nc(NCC(O)CO)c3cc(Cl)ccc3n2)Cc2ccccc21 (stereo not drawn) [Example 87-2]
12,0.007,"Cc1ccc2nc(N3CC[S+]([O-])c4ccccc4C3)nc(NCCN)c2c1 (stereo not drawn) [Example 89, N-[6-Methyl-2-(1-oxido-2,3-dihydro-1,4-benzothiazepin-4(5H)-yl)quinazolin-4-yl]ethane-1,2-diamine]"
13,0.005,"Cc1ccc2nc(N3CCS(=O)(=O)c4ccccc4C3)nc(NCCN)c2c1 [Example 90, N-[2-(1,1-Dioxido-2,3-dihydro-1,4-benzothiazepin-4(5H)-yl)-6-methylquinazolin-4-yl]ethane-1,2-diamine]"
14,0.004,"Cc1ccc2nc(N3CC[S+]([O-])c4ccccc4C3)nc(NC3(CN)COC3)c2c1 (stereo not drawn) [Example 91, N-[3-(Aminomethyl)oxetan-3-yl]-6-methyl-2-(1-oxido-2,3-dihydro-1,4-benzothiazepin-4(5H)-yl)quinazolin-4-amine]"
15,0.005,"Cc1ccc2nc(N3CC[S+]([O-])c4ccccc4C3)nc(N3CCC(N)C3)c2c1 (stereo not drawn) [Example 93-1, 1-[6-Methyl-2-(1-oxido-2,3-dihydro-1,4-benzothiazepin-4(5H)-yl)quinazolin-4-yl]pyrrolidin-3-amine]"
16,0.009,"Cc1ccc2nc(N3CCS(=O)(=O)c4ccccc4C3)nc(NC3CNC3)c2c1 [Example 93-2, N-(Azetidin-3-yl)-6-methyl-2-(1,1-dioxido-2,3-dihydro-1,4-benzothiazepin-4(5H)-yl)quinazolin-4-amine]"
17,6.53,"Cc1ccc2nc(N3CCS(=O)(=O)c4ccccc4C3)cc(CC[C@@H]3COC(N)=N3)c2c1 [Example 94, (4R)-4-{2-[2-(1,1-Dioxido-2,3-dihydro-1,4-benzothiazepin-4(5H)-yl)-6-methylquinolin-4-yl]ethyl}-4,5-dihydro-1,3-oxazol-2-amine]"
18,3.04,"CCc1ccc2nc(N3CCS(=O)(=O)c4ccccc4C3)cc(CCC(=O)O)c2c1 [Example 95, 3-[2-(1,1-Dioxido-2,3-dihydro-1,4-benzothiazepin-4(5H)-yl)-6-ethylquinolin-4-yl]propanoic acid]"
19,2.83,"Cc1ccc2nc(N3CCS(=O)(=O)c4ccccc4C3)cc(CCCN)c2c1 [Example 96, 3-[2-(1,1-Dioxido-2,3-dihydro-1,4-benzothiazepin-4(5H)-yl)-6-methylquinolin-4-yl]propan-1-amine]"
20,0.177,"Cc1ccc2nc(N3CCS(=O)(=O)c4ccccc4C3)cc(OCCN)c2c1 [Example 97, 2-{[2-(1,1-Dioxido-2,3-dihydro-1,4-benzothiazepin-4(5H)-yl)-6-methylquinolin-4-yl]oxy}ethanamine]"
21,0.778,"Cc1ccc2nc(N3CCS(=O)(=O)c4ccccc4C3)cc(OC3CCNC3)c2c1 (stereo not drawn) [Example 98-1, 4-[6-Methyl-4-(pyrrolidin-3-yloxy)quinolin-2-yl]-2,3,4,5-tetrahydro-1,4-benzothiazepine 1,1-dioxide]"
22,3.16,Cc1ccc2nc(N3CCS(=O)(=O)c4ccccc4C3)cc(OC3CCNCC3)c2c1 [Example 98-2]
23,3,"Cc1ccc2nc(N3CCS(=O)(=O)c4ccccc4C3)cc(C)c2c1 [Example 99, 4-(4,6-Dimethylquinolin-2-yl)-2,3,4,5-tetrahydro-1,4-benzothiazepine 1,1-dioxide]"
24,9.19,"Cc1ccc2nc(N3CCS(=O)(=O)c4ccccc4C3)cc(C(=O)C3CCNCC3)c2c1 [Example 100, [2-(1,1-Dioxido-2,3-dihydro-1,4-benzothiazepin-4(5H)-yl)-6-methylquinolin-4-yl](piperidin-4-yl)methanone]"
25,8.58,"Cc1ccc2nc(N3CCS(=O)(=O)c4ccccc4C3)cc(-c3cc[nH]n3)c2c1 [Example 101, 4-[6-Methyl-4-(1H-pyrazol-3-yl)quinolin-2-yl]-2,3,4,5-tetrahydro-1,4-benzothiazepine 1,1-dioxide]"
26,9.76,"Cc1ccc2nc(N3CCS(=O)(=O)c4ccccc4C3)cc(S(=O)(=O)c3ccccc3)c2c1 [Example 102, 4-[6-Methyl-4-(phenylsulfonyl)quinolin-2-yl]-2,3,4,5-tetrahydro-1,4-benzothiazepine 1,1-dioxide]"
27,0.202,"Cc1ccc2nc(N3CCS(=O)(=O)c4ccccc4C3)cc(S(=O)(=O)NCCN)c2c1 [Example 103, N-(2-Aminoethyl)-2-(1,1-dioxido-2,3-dihydro-1,4-benzothiazepin-4(5H)-yl)-6-methylquinoline-4-sulfonamide]"
